The record followed here is US7972611B2, “Fungus-induced inflammation and eosinophil degranulation” (Mayo Foundation for Medical Education and Research, priority 2005, dated 2011).

Where two headings read alike, the source gives them in different places.

Data set [1] has as its target T1, PAR-2 (Homo sapiens, UniProt P55085).
T1 construct: endogenous in cells; host or cells: isolated human blood eosinophils
T1 sequence (P55085 26-397): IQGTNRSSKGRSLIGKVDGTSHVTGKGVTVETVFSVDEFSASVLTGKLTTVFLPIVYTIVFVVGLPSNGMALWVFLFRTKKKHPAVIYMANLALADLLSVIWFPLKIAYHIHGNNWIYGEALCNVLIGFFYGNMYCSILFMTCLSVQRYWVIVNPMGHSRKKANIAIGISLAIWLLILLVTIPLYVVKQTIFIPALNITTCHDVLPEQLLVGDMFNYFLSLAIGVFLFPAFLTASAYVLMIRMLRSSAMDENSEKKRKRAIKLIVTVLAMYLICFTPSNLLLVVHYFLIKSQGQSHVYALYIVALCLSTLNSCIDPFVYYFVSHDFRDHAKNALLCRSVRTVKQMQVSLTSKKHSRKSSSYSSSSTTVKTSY
The experiment in a line: Eosinophil calcium response to Alternaria extract after preincubation with PAR-2 peptides. As to conditions: preincubation with peptide, 100 μM. The format is cell-based. How it is done: FIG. 8. Desensitization of eosinophil calcium response (Panel A) and EDN release (Panel B) by PAR-2 peptides. Cells were preincubated with PAR-2 agonist (SLIGKV; SEQ ID NO:38), PAR-2 antagonist (LSIGKV; SEQ ID NO:35) or control peptide (GLIVKS; SEQ ID NO:36) (all at 100 μM) before stimulation with Alternaria extract (Panel A) or with Alternaria extract, PAF or PMA (Panel B).
The majority of previous studies in anti-fungal immune responses used the following models: animal infection in in vivo systems (e.g., Candida albicans, Aspergillus fumigatus), or entire fungal hyphae or conidia (e.g., C. albicans, A. fumigatus), a yeast model (e.g., zymosan), and isolated fungal carbohydrate macromolecules (e.g., β-glucan, mannan) in in vitro systems. These studies pointed to roles for TLRs, in particular TLR2 and TLR4, and to other pattern recognition receptors that immune cells, such as macrophages and neutrophils, use to recognize fungi. Because eosinophils express little TLR2 or TLR4 and the active component(s) in Alternaria extract was a heat-labile molecule(s) with an approximate 30-50 kDa molecular mass (FIG. 6), it was speculated that an Alternaria-derived protease(s) (not carbohydrates), interacting with eosinophil PAR-2, may be involved in the eosinophils' responses to Alternaria. Sine no specific small molecule inhibitor for PAR-2 is available, a desensitization approach was used. […] In contrast, degranulation induced by PAF or PMA was not affected by the LSIGKV (SEQ ID NP:35) peptide. Thus, PAR-2 is likely involved in the eosinophils' calcium and degranulation responses to Alternaria extract.

In data set [2] the test system is eosinophils. The format is cell-based, human. As to conditions: for eosinophil degranulation (EDN release) induced by Alternaria extract: 3 hours at 37° C. How it is done:
FIG. 9. […] Alternaria extract, trypsin, or PMA was pretreated with pepstatin A agarose, control agarose, or APMSF, and added to the PAR-2 peptide substrate (Panel A) or eosinophils (Panel B).
(§1) To monitor eosinophil function in response to extracts from Alternaria, degranulation of human eosinophils was measured by quantitating released eosinophil-derived neurotoxin (EDN) and/or MBP. In brief, freshly isolated eosinophils were suspended in HBSS with 25 mM HEPES and 0.01% gelatin at 5×10^5 cells/mL. Eosinophils and stimuli were incubated in 96-well tissue culture plates for 3 hours at 37° C. and 5% CO^2. Cell-free supernatants were stored at −20° C. A specific RIA quantitated eosinophil degranulation by measuring the concentration of EDN in the supernatants.

The subject of data set [3] is BEAS-2B cells. Nature of the data set: Cytokine production by BEAS-2B airway epithelial cells. The format is cell-based, human. On the procedure:
FIG. 10. Effects of fungi on IL-6 production by BEAS-2B cells. BEAS-2B cells were incubated with culture extracts of various fungi for 24 hours. IL-6 concentrations in the supernatants were measured by ELISA. *, p<0.05 compared to medium alone, n=3.
FIG. 11. Effects of an aspartate protease inhibitor, ritonavir, on IL-8 production by BEAS-2B cells. Alternaria extract or TNF-α was pretreated with ritonavir and added to BEAS-2B cells. IL-8 concentrations in the supernatants were measured after 24 hours. Data are normalized to the values without ritonavir as 100%. *, p<0.05 compared to no inhibitor, n=4.
Eosinophils may be the only cell that can recognize Alternaria. […] BEAS-2B stimulated with Alternaria also produced other pro-inflammatory factors such as IL-8 and GM-CSF. This Alternaria-induced IL-6 production was inhibited by ATBI, nelfinavir, ritonavir or pepstatin A-agarose treatment of Alternaria extract by about 60% to 90%; ritonavir results are shown in FIG. 11. In contrast, TNF-α-induced IL-6 production was not affected by these treatments. […] Thus, through its aspartate protease activity, Alternaria may activate airway epithelial cells; this activation is partially mediated by PAR-2.

The subject of data set [4] is PBMCs. Nature of the data set: PBMC CD4+ T cell proliferation by CFSE labeling. The format is cell-based, human. The note with it: side-by-side experiment, day 7.
Data set [5] concerns trypsin. Nature of the data set: Inhibition of trypsin cleavage of PAR-2 peptide substrate. The format is biochemical. The source says: (§2) FIG. 9. Effects of protease inhibitors on PAR-2 cleavage activity (Panel A) and EDN release activity (Panel B) of Alternaria extract. Alternaria extract, trypsin, or PMA was pretreated with pepstatin A agarose, control agarose, or APMSF, and added to the PAR-2 peptide substrate (Panel A) or eosinophils (Panel B). In Panel B, *, p<0.05 compared to no inhibitors, n=4.
(§3) A fluorescent quenched peptide substrate (Abz-SKGRSLIGK(Dnp)D) (SEQ ID NO:37), which spans the trypsin-cleavage site (between R and S) of PAR-2 was synthesized, and used it in an in vitro assay for PAR-2 cleavage and activation. […] Alternaria's activity was abolished when aspartate protease(s) was removed from the extract by pepstatin A agarose (FIG. 9); pepstatin A is a highly specific inhibitor for aspartate protease. […] Thus, an aspartate protease(s) in Alternaria extract, but not a serine protease(s), may be involved in the activation of eosinophils through PAR-2. this observation was confirmed by using other aspartate protease inhibitors, including alkalo-thermophilic bacillus inhibitor (ATBI), nelfinavir, and ritonavir.

Data set [6] concerns aspartate protease(s) in Alternaria extract. The experiment in a line: Inhibition of PAR-2 cleavage activity of Alternaria extract. The format is biochemical. The note with it: extract pretreated with inhibitor.
Text: as §2, §3

The subject of data set [7] is patients with CRS. The experiment in a line: Open-label pilot trial of intranasal amphotericin B in CRS patients. How it is done:
To examine the clinical significance of fungal colonization in CRS, two clinical trials were performed to examine the efficacy of anti-fungal agents. It was hypothesized that anti-fungal agents will reduce the fungal burden in the upper airways, resulting in less antigenic stimulation of immune cells, less airway inflammation, and improved clinical outcomes. […] This prospective, open-label trial used amphotericin B as a medical treatment in 51 randomly selected CRS patients. The antifungal was applied intranasally using 20 mL of a 100 μg/mL solution twice daily for a mean of 11 months (minimum of 3 months).

The test system of data set [8] is patients with CRS. The experiment in a line: Randomized, placebo-controlled, double-blind trial of intranasal amphotericin B in CRS patients. The format is in vivo, human. As to conditions: 6 months. How it is done:
Second, to address the efficacy of intranasal antifungal agents more objectively, a randomized, placebo-controlled, double-blind, single center trial was performed to treat 30 randomly selected CRS patients. Patients instilled 20 mL amphotericin B (250 μg/mL) or placebo to each nostril twice daily for 6 months. Twenty-four patients completed the 6 months of treatment. […] The changes in the endoscopic scores improved in the amphotericin B group compared to placebo (p=0.038). […] Some patients responded well to the treatment, but others not as well. Thus, fungi may be important in the development of CRS in certain patients.

Data set [9] has as its system human eosinophils. The experiment in a line: Eosinophil degranulation (EDN release) and activation by fungal extracts and proteins. The format is cell-based. As to conditions: through PAR-2. On the procedure:
FIG. 5. Effects of fungi on eosinophil degranulation. Eosinophils were incubated with culture extracts of various fungi for 3 hours.
FIG. 21. Effects of Trichoderma xylanase on eosinophil degranulation (Panel A). Effects of Trichoderma xylanase on IL-5 production in mouse airways (Panel B). Panel A: Eosinophils were incubated with various concentrations of Trichoderma xylanase for 3 hours. EDN concentrations in the supernatants were measured by RIA as an indicator of degranulation. Panel B: Naive BALB/c mice were exposed intranasally to various doses of Trichoderma xylanase. After 12 hours, BAL fluids were collected and the concentrations of IL-5 were measured by ELISA. Mean±range, n=2.
FIG. 25. Partial characterization of Alternaria extract. A, Before incubation with eosinophils, aliquots of 100 μg/mL Alternaria and 10 ng/mL IL-5 were heated at 37, 56, or 100° C. for 30 min or were treated at 4° C. for 30 min. Eosinophils were incubated in duplicate with these treated stimuli for 3 hours at 37° C. […] The molecular weight calibration of the column is shown above the elution profile.
The following was performed to determine whether human eosinophils have an innate capacity to respond to environmental fungal organisms. Human eosinophils were incubated with extracts from common environmental airborne fungi.
as §1

The test system of data set [10] is PAR-2 peptide substrate (Abz-SKGRSLIGK(Dnp)D). The experiment in a line: Fluorescent quenched PAR-2 peptide substrate cleavage assay. The format is biochemical.
Text: as §2, §3

“GLIVKS (Synthetically generated oligonucleotide) [control scramble peptide]”: in data set [1], the “eosinophils' calcium response to Alternaria extract” value (from here on “eosinophils' calcium response”) is “showed no effects”.
On to “alkalo-thermophilic bacillus inhibitor [ATBI]”, for which the “eosinophil degranulation (EDN release) induced by Alternaria extract” value in data set [2] is “confirmed”. Further, the “TNF-α-induced IL-6 production by BEAS-2B cells” value in data set [3] is listed as “not affected”.
As to tetanus toxoid: tetanus toxoid, the “CFSElow CD4+ cells” value in data set [4] (CRS patient) was 43.2%; in [4] (normal individual), 47.9%.
For `N=C(N)c1ccc(CS(=O)(=O)F)cc1` [APMSF], in data set [5], the “PAR-2 peptide cleavage activity of trypsin” value is reported as “inhibited the activity”. Besides, the “eosinophil degranulation (EDN release) induced by Alternaria extract” value in [2] was “not”; in data set [2] (listed as APSF), “did not inhibit”. The “PAR-2 peptide cleavage activity of Alternaria extract” value in data set [6] is “insensitive”.
For “SLIGKV (Synthetically generated oligonucleotide) [PAR-2 agonistic peptide]”, in data set [1], the “eosinophils' calcium response” value is recorded as “significantly inhibited”.
`C[C@@H]1[C@H](O)[C@@H](C)/C=C/C=C/C=C/C=C/C=C/C=C/C=C/[C@H](O[C@@H]2O[C@H](C)[C@@H](O)[C@H](N)[C@@H]2O)C[C@@H]2O[C@](O)(C[C@@H](O)C[C@@H](O)[C@H](O)CC[C@@H](O)C[C@@H](O)CC(=O)O[C@H]1C)C[C@H](O)[C@H]2C(=O)O` [amphotericin B]: the “no effect seen, patients” value in data set [7] (13/51 patients) was 25%. In addition, the “endoscopically disease free, patients” value in data set [7] (18/51 patients) is recorded as 35%. Further, the “endoscopically improved by at least one stage, patients” value in [7] (additional 20/51 patients) is reported as 39%. Besides, the “improvement of sinusitis symptoms, patients” value in [7] (intranasal 20 mL of 100 μg/mL twice daily, mean 11 months, 38/51 patients) stood at 75%. The “inflammatory mucosal thickening on CT scans pre- and post-treatment” value in data set [7] (n=12) was “significant reduction”. Further, the “safety of direct muco-administration” value in data set [7] (open-label pilot trial) was “safe”. Moreover, the “change in intranasal mucus levels of EDN” value in data set [8] (increase in placebo group, p=0.046) was “a reduction”. Besides, the “changes in endoscopic scores compared to placebo” value in data set [8] (p=0.038) is on record as “improved”. In addition, the “mucosal thickening on CT scans compared to placebo” value in data set [8] (20 mL 250 μg/mL each nostril twice daily, p=0.030) is on record as “reduced”.
As to “LSIGKV (Synthetically generated oligonucleotide) [PAR-2 antagonist]”, the “eosinophil degranulation (EDN release) induced by Alternaria extract” value was “significantly and specifically inhibited” in data set [2]; “inhibited” in [2] (listed as PAR2-inhibitory peptide). In addition, the “eosinophil degranulation induced by PAF” value in data set [2] (peptide 100 μM) was “not affected”. Moreover, the “eosinophil degranulation induced by PMA” value in data set [2] (peptide 100 μM) was “not affected”. Also, the “eosinophils' calcium response” value in data set [1] is reported as “also inhibited”. Further, in data set [3] (treatment of Alternaria extract or PAR-2 antagonist), the “inhibition of Alternaria-induced IL-6 production by BEAS-2B cells” value is given as roughly 40%.
Consider `Cc1c(O)cccc1C(=O)N[C@@H](CSc1ccccc1)[C@H](O)CN1C[C@H]2CCCC[C@H]2C[C@H]1C(=O)NC(C)(C)C` [nelfinavir], for which the “eosinophil degranulation (EDN release) induced by Alternaria extract” value in data set [2] is “confirmed”. Also, the “TNF-α-induced IL-6 production by BEAS-2B cells” value in [3] is on record as “not affected”.
The matching figures for `CC(C)c1nc(CN(C)C(=O)N[C@H](C(=O)N[C@@H](Cc2ccccc2)C[C@H](O)[C@H](Cc2ccccc2)NC(=O)OCc2cncs2)C(C)C)cs1` [ritonavir]: “confirmed” and “not affected”.

B1: trypsin: serine protease, positive control (protein, UniProt P00760 24-246, looked up)
Serine protease 1: IVGGYTCGANTVPYQVSLNSGYHFCGGSLINSQWVVSAAHCYKSGIQVRLGEDNINVVEGNEQFISASKSIVHPSYNSNTLNNDIMLIKLKSAASLNSRVASISLPTSCASAGTQCLISGWGNTKSSGTSYPDVLKCLKAPILSDSSCKSAYPGQITSNMFCAGYLEGGKDSCQGDSGGPVVCSGKLQGIVSWGSGCAQKNKPGVYTKVCNYVSWIKQTIASN
Consider B1, for which, in [9], the “activation of human eosinophils by proteases” value was “activated”. Besides, in data set [10], the “cleavage of PAR-2 peptide substrate” value is “clearly cleaved”.
